Experiment [1] deals with Citrullus vulgaris urease (CVU). As to the kind of experiment: Inhibition of CVU urease activity after 1 h incubation with inhibitor (phenol red assay). In kind it is biochemical. The settings on record: for IC50: CVU incubated 1 h at 37 °C with inhibitor, 2 mM urea, pH 6.8; for Plateau (% of Initial): residual activity at plateau from the fit, 1 h at 37 °C. On the procedure: (§1) The specific ureolytic activity was assayed spectrophotometrically at 37 °C in a Fluostar Omega (BMG LABTECH Inc, Cary, NC, USA) spectrometer. The reaction was monitoring by the increase of ammonia concentration following the absorbance at 558 nm by The Phenol Red Assay, taking similar considerations as the one described elsewhere. The standard urease test consisted in 0.3 mL of reaction buffer: 0.5 mM MES, 0.016 mM phenol red, and 50 mM urea, at pH 6.8. All assays were initiated by the addition of the enzyme (≈0.6 ng/mL). Initial velocity rates were determined from the initial linear portion of the reaction course-times. Saturation kinetics experiments were performed under the same conditions, except that different concentrations of urea were used (0.5 to 50 mM), and data were fitted to Michaelis-Menten model (Equation (1)). All experiments presented were reproduced at least three times.
To evaluate the saturation of CVU with inhibitors, enzyme was incubated for one hour at 37 °C with different concentrations of inhibitors in the standard reaction mixture, the reactions were started by the addition of urea to a final concentration of 2 mM, followed by the measurement of the residual activity. Percentages of residual activity were plotted against inhibitor concentration. Since two types of behavior were observed, two different equations were used to fit the data. In one case, we observed a trend that produced a full loss of activity (Equation (3)), and in the other case a partial inhibition is observed, meaning that at enzyme saturation activity value is non-zero (Equation (4)).
Equation (3): Full-Inhibition Saturation Kinetics, (3) residual activity (%) = A0 IC50h/IC50h+[I]^h where h, is the Hill coefficient; IC50 is the apparent inhibition constant; [I], is the inhibitor concentration. Residual activity and A0 is the same as in Equation (2).
Equation (4): Partially-Inhibition Saturation Kinetics, (4) residual activity (%)= A0 IC50h/IC50h+[I]^h+plateau where parameters and variables are same as in Equation (3), with the difference that a plateau is included.
Inhibition of CVU by Aldrithiol (2,2′-dipyridyl disulphide, here in after called DPS for dipyridine sulfide), captopril ((S)-1-(3-Mercapto-2-methyl-1-oxopropyl)-L-proline), bithionol (2,2′-Sulfanediylbis(4,6-dichlorophenol)) and quercetin were performed in a similar manner as for inhibition experiments with DSF. These inhibitors were purchased from Sigma-Aldrich (Toluca, Mexico). Inhibition kinetics data were fitted to the indicated equation. The protection of the activity by a given inhibitor (called I2), at a concentration equal to the IC50 value, over the inhibition produced by DPS was monitored measuring changes in initial velocity and plotting the percentage of inhibition for each treatment and expressed as mean ± SEM. Student t test was used to estimate statistical significance. Measurements of variance were performed using a one-way ANOVA. Differences were considered significant when p was less than 0.05. All experiments were performed at least three times, and in all cases the SEM justifies the accuracy of the values, except in the case of inhibition kinetics of bithionol and quercetin in which SEM is higher than 10% of the estimated value.

For experiment [2] the test system is unchanged. In words: Time courses of inactivation of CVU pre-incubated with DSF. In kind it is biochemical. The settings on record: 37 °C. Here is the method: as §1
To evaluate the time and concentration-dependence of the inhibition of urease activity, the initial rates of urea hydrolysis were measured in the standard reaction mixture in the presence of DSF (tetraethylthiuram disulphide), (C2H5)2N(C=S)S–S(S=C)N(C2H5)2, during different incubation periods. DSF was purchased from Sigma-Aldrich (Toluca, Mexico). In these experiments urease reactions were started by the addition of urea to a final concentration of 2 mM. The residual activity in percentage of the initial was plotted against the time of incubation and fitted to an exponential decay equation with a plateau (Equation (2)).
Equation (2): Enzyme inactivation, (2) residual activity = (A0−plateau)(e^−kt)+plateau, where the residual activity is the observed activity upon the inhibition; A0, is the activity observed in the absence of the inhibitor; the plateau, is the value of Y minimum; k, is the observed one phase kinetic constant, and t is the time of incubation. Activity was transformed to percentage, where activity in the absence of DSF is 100%.

The test system is the same in experiment [3]. As to the kind of experiment: Inhibition pattern: urea saturation kinetics of CVU at fixed/variable DSF concentrations. In kind it is biochemical. On the procedure: as §1, with “three times. For the inhibition pattern urea saturation kinetics experiments were performed at fixed/variable concentrations of DSF and data were globally fitted to Equation (5).” for “three times.”

The target of experiment [4] is Citrullus vulgaris urease (CVU). As to the kind of experiment: Binding equilibrium by intrinsic fluorescence quenching. The settings on record: 1 h after addition, 37 °C, read-out: DSF dissociation constant (Kd). On the procedure:
The binding of DSF was monitored after apparent equilibrium by measuring the intrinsic tryptophan fluorescence intensity changes at 37 °C using a spectrometer (Fluostar Omega, BMG). CVU was excited at 290 nm, and fluorescence intensity was recorded at 340 nm after an hour of incubation at 37 °C in the absence or presence of different concentrations of DSF. In order to discard solvent fluorescent changes, a control experiment was performed in which the different volumes of solvent (same as in the titration volumes used in ligand additions) were added to urease. Fluorescence intensity changes were plotted against the DSF concentrations and fitted to […]. Equation (6): Fluorescence binding saturation, (6) ΔIF = Bmax [DSF]/Kd+[DSF] where ΔIF, is the change in fluorescence intensity at 340 nm; Bmax, is the maximum ΔIF and corresponds to the maximum binding; [DSF], is the disulfiram concentration and Kd, is the dissociation constant.

Turning to `Oc1c(Cl)cc(Cl)cc1Sc1cc(Cl)cc(Cl)c1O` [Bithionol, 2,2′-Sulfanediylbis(4,6-dichlorophenol)], in experiment [1], the IC50 stood at 376 ± 120 µM and the “Plateau (% of Initial)” value is 34.53 ± 18.23 % of Initial.

Take `O=c1c(O)c(-c2ccc(O)c(O)c2)oc2cc(O)cc(O)c12` [Quercetin, quercetin]: in experiment [1], half-maximal inhibition (IC50) was put at 155 ± 10.2 µM and the “Plateau (% of Initial)” value is 58.86 ± 1.52 % of Initial.

For `CCN(CC)C(=S)SSC(=S)N(CC)CC` [DSF, tetraethylthiuram disulphide], the “Plateau (% of Initial)” value in experiment [1] is on record as 0.00 % of Initial. Moreover, in experiment [2] (50 µM DSF), the “apparent half-life time of inactivation” value was determined as 13.80 min; the kobs of inactivation was found to be 0.050 ± 0.007 min⁻¹; the “plateau, % of the initial velocity” value was 63.60% ± 1.40. In addition, in experiment [2] (80 µM DSF), the “apparent half-life time of inactivation” value is 7.50 min; the kobs of inactivation worked out at 0.092 ± 0.024 min⁻¹; the “plateau, % of the initial velocity” value was 53.48% ± 3.05. In addition, in experiment [3] (Lineweaver–Burk plots of the inhibition pattern), the Inhibition mechanism entry is reported as “non-competitive inhibition mechanism”. Also, the Ki in experiment [3] (global fit to non-competitive inhibition, Equation (5), read-out: Inhibition constant (Ki)) was 67.6 ± 7 µM. Further, the Kd in experiment [4] turned out to be 54.9 ± 3.9 µM.

`CC(CS)C(=O)N1CCC[C@H]1C(=O)O` (stereo partly drawn) [Captopril, (S)-1-(3-Mercapto-2-methyl-1-oxopropyl)-L-proline]: in experiment [1], inhibition was half-maximal at 524 ± 39.6 µM (IC50) and the “Plateau (% of Initial)” value is listed as 0.00 % of Initial.
